From paper PMC8924334, “Synthesis of [^11C]carbonyl-labeled cyclohexyl (5-(2-acetamidobenzo[d]thiazol-6-yl)-2-methylpyridin-3-yl)carbamate ([^11C-carbonyl]PK68) as a potential PET tracer for receptor-interacting protein 1 kinase” (EJNMMI Radiopharmacy and Chemistry, 2022)
“And” between values parts separate entries of the source, which are not always exact repeats. Equal entries are not always repeated.

Legend:
[1] = Ex vivo biodistribution study; assay type: in vivo, mice; details: mean ± SD, n = 3
Experimental: Each mouse (8 weeks old, 37.9 ± 1.0 g) was injected with a bolus of [^11C]PK68 (2.7 MBq, 0.1 mL) via its tail vein. Three mice were sacrificed by cervical dislocation at each experimental time-point (1, 5, 15, 30, and 60 min) after the injection. The blood (heart contents), heart wall, lung, liver, pancreas, spleen, kidneys, adrenals, stomach (including contents), small intestine (including contents), large intestines (including contents), testes, muscles, and whole brain were removed quickly and weighed. The radioactivity in these tissues was measured with an autogamma scintillation counter (2480 Wizard^2) and expressed as %ID/g. All radioactivity measurements were corrected for decay.

[2] = Metabolite analysis in plasma and liver; assay type: in vivo, mice
Experimental: Following intravenous injection of [^11C]PK68 (37 MBq, 0.1 mL), the mice (8–9 weeks, 40.1 ± 5.3 g) were killed by cervical dislocation at 5, 15, 30, and 60 min. Blood and liver samples were obtained immediately. Each blood sample was centrifuged in a heparinized tube at 15,000 g for 2 min at 4 °C to separate the plasma. The supernatant was collected in a test tube containing CH3CN, and the resulting mixture was vortexed for 15 s, then centrifuged at 15,000 g for 2 min for deproteinization. The resulting supernatant was collected. Each liver sample was homogenized using a Silent Crusher S homogenizer (Rose scientific, Edmonton, Canada) in ice-cooled saline. The resulting homogenate was mixed with an equivalent amount of CH3CN, and centrifuged at 15,000 g for 2 min for deproteinization. An aliquot of the supernatant (0.1–1.0 mL) obtained from the plasma or liver homogenate was injected into the HPLC system with a radioactivity detector, and analyzed using a Capcell Pak C18 column (4.6 mm i.d. × 250 mm, Shiseido) with a mobile phase [CH3CN/H2O/TFA, (45/55/0.1, v/v/v)] at a flow rate of 1.0 mL/min. The percentage ratio of [^11C]PK68 (tR = 5.0 min) to total radioactivity (corrected for decay) on the HPLC chromatogram was calculated as % = (peak area for [^11C]PK68/total peak area) × 100.

[3] = Lipophilicity (logD), n-octanol/PBS pH 7.4 shake-flask; assay type: physicochemical; details: n-octanol/PBS pH 7.4, room temperature
Experimental: An aliquot of 0.65 mL PBS and 0.65 mL n-octanol was removed and weighed, and its radioactivity was determined using an autogamma counter (2480 Wizard^2, Perkin-Elmer, Waltham, MA, USA). Each sample from the remaining organic layer was removed and repartitioned until a consistent logD value was obtained. The logD value was calculated by comparing the ratio of counts per minute (cpm)/g of n-octanol to that of PBS, and is expressed as logD = log[cpm/g (n-octanol)/cpm/g (PBS)]. All measurements were performed in triplicate.

Work on `Cc1ncc(-c2ccc3nc(N[11C](C)=O)sc3c2)cc1NC(=O)OC1CCCCC1` [[^11C]PK68, Cyclohexyl (5-(2-[^11C-carbonyl]acetamidobenzo[d]thiazol-6-yl)-2-methylpyridin-3-yl)carbamate] yielded a radioactivity in adrenals ([1]; 1 min after injection) of 6.2 ± 2.7 %ID/g, a radioactivity in blood ([1]; 1 min after injection) of 2.4 ± 0.3 %ID/g and a radioactivity in brain ([1]; 1 min after injection) of 0.6 ± 0.0 %ID/g. For the same compound, the radioactivity in heart ([1]; 1 min after injection) was 7.6 ± 0.3 %ID/g, the “radioactivity in large intestine (including contents)” value (from here on “radioactivity in large intestine”) ([1]; 1 min after injection) was 0.7 ± 0.1 %ID/g and the radioactivity in liver ([1]; 1 min after injection) was 8.0 ± 0.8 %ID/g. It also gave a radioactivity in lung ([1]; 1 min after injection) of 5.2 ± 0.2 %ID/g, a radioactivity in muscle ([1]; 1 min after injection) of 1.9 ± 0.3 %ID/g and a radioactivity in pancreas ([1]; 1 min after injection) of 3.4 ± 0.2 %ID/g. For the same compound, the “radioactivity in small intestine (including contents)” value (shortened to “radioactivity in small intestine”) ([1]; 1 min after injection) was 1.8 ± 0.1 %ID/g, the radioactivity in spleen ([1]; 1 min after injection) was 1.5 ± 0.2 %ID/g and the “radioactivity in stomach (including contents)” value (“radioactivity in stomach” below) ([1]; 1 min after injection) was 1.2 ± 0.2 %ID/g. The radioactivity in testis ([1]; 1 min after injection) was 0.3 ± 0.1 %ID/g, the radioactivity in adrenals ([1]; 5 min after injection) was 4.0 ± 0.5 %ID/g and the radioactivity in blood ([1]; 5 min after injection) was 1.3 ± 0.2 %ID/g. The radioactivity in brain ([1]; 5 min after injection) was 0.4 ± 0.0 %ID/g, the radioactivity in heart ([1]; 5 min after injection) was 2.8 ± 0.3 %ID/g and the radioactivity in kidney ([1]; 5 min after injection) was 9.9 ± 0.4 %ID/g. For the same compound, the “radioactivity in large intestine” value ([1]; 5 min after injection) was 0.9 ± 0.1 %ID/g, the radioactivity in liver ([1]; 5 min after injection) was 17.2 ± 0.7 %ID/g and the radioactivity in lung ([1]; 5 min after injection) was 2.6 ± 0.2 %ID/g. The radioactivity in muscle ([1]; 5 min after injection) was 1.1 ± 0.1 %ID/g, the radioactivity in pancreas ([1]; 5 min after injection) was 2.7 ± 0.3 %ID/g and the “radioactivity in small intestine” value ([1]; 5 min after injection) was 3.3 ± 0.1 %ID/g. For the same compound, the radioactivity in spleen ([1]; 5 min after injection) was 1.6 ± 0.1 %ID/g, the “radioactivity in stomach” value ([1]; 5 min after injection) was 2.0 ± 0.1 %ID/g and the radioactivity in testis ([1]; 5 min after injection) was 0.3 ± 0.0 %ID/g. It also gave a radioactivity in adrenals ([1]; 15 min after injection) of 3.3 ± 0.5 %ID/g, a radioactivity in blood ([1]; 15 min after injection) of 1.1 ± 0.1 %ID/g and a radioactivity in brain ([1]; 15 min after injection) of 0.3 ± 0.0 %ID/g. For the same compound, the radioactivity in heart ([1]; 15 min after injection) was 2.1 ± 0.3 %ID/g, the radioactivity in kidney ([1]; 15 min after injection) was 7.7 ± 1.0 %ID/g and the “radioactivity in large intestine” value ([1]; 15 min after injection) was 1.4 ± 0.3 %ID/g. For the same compound, the radioactivity in liver ([1]; 15 min after injection) was 15.6 ± 0.8 %ID/g, the radioactivity in lung ([1]; 15 min after injection) was 2.1 ± 0.3 %ID/g and the radioactivity in muscle ([1]; 15 min after injection) was 0.8 ± 0.1 %ID/g. For the same compound, the radioactivity in pancreas ([1]; 15 min after injection) was 2.1 ± 0.3 %ID/g, the “radioactivity in small intestine” value ([1]; 15 min after injection) was 9.8 ± 3.1 %ID/g and the radioactivity in spleen ([1]; 15 min after injection) was 1.4 ± 0.2 %ID/g. The “radioactivity in stomach” value ([1]; 15 min after injection) was 4.0 ± 1.2 %ID/g, the radioactivity in testis ([1]; 15 min after injection) was 0.3 ± 0.0 %ID/g and the radioactivity in adrenals ([1]; 30 min after injection) was 2.1 ± 0.8 %ID/g. For the same compound, the radioactivity in blood ([1]; 30 min after injection) was 0.8 ± 0.1 %ID/g, the radioactivity in brain ([1]; 30 min after injection) was 0.2 ± 0.0 %ID/g and the radioactivity in heart ([1]; 30 min after injection) was 1.3 ± 0.1 %ID/g. The radioactivity in kidney ([1]; 30 min after injection) was 6.2 ± 0.6 %ID/g, the “radioactivity in large intestine” value ([1]; 30 min after injection) was 1.7 ± 0.4 %ID/g and the radioactivity in liver ([1]; 30 min after injection) was 10.7 ± 0.3 %ID/g. The radioactivity in lung ([1]; 30 min after injection) was 1.5 ± 0.2 %ID/g, the radioactivity in muscle ([1]; 30 min after injection) was 0.6 ± 0.1 %ID/g and the radioactivity in pancreas ([1]; 30 min after injection) was 1.4 ± 0.1 %ID/g. The “radioactivity in small intestine” value ([1]; 30 min after injection) was 16.7 ± 1.4 %ID/g, the radioactivity in spleen ([1]; 30 min after injection) was 0.9 ± 0.0 %ID/g and the “radioactivity in stomach” value ([1]; 30 min after injection) was 4.7 ± 1.0 %ID/g. The radioactivity in testis ([1]; 30 min after injection) was 0.3 ± 0.0 %ID/g, the radioactivity in adrenals ([1]; 60 min after injection) was 1.2 ± 0.1 %ID/g and the radioactivity in blood ([1]; 60 min after injection) was 0.5 ± 0.1 %ID/g. For the same compound, the radioactivity in brain ([1]; 60 min after injection) was 0.1 ± 0.0 %ID/g, the radioactivity in heart ([1]; 60 min after injection) was 0.7 ± 0.1 %ID/g and the radioactivity in kidney ([1]; 60 min after injection) was 3.2 ± 0.1 %ID/g. The “radioactivity in large intestine” value ([1]; 60 min after injection) was 2.6 ± 0.6 %ID/g, the radioactivity in liver ([1]; 60 min after injection) was 6.0 ± 0.2 %ID/g and the radioactivity in lung ([1]; 60 min after injection) was 0.8 ± 0.1 %ID/g. The radioactivity in muscle ([1]; 60 min after injection) was 0.3 ± 0.0 %ID/g, the radioactivity in pancreas ([1]; 60 min after injection) was 0.8 ± 0.1 %ID/g and the “radioactivity in small intestine” value ([1]; 60 min after injection) was 27.7 ± 3.0 %ID/g. The radioactivity in spleen ([1]; 60 min after injection) was 0.5 ± 0.1 %ID/g, the “radioactivity in stomach” value ([1]; 60 min after injection) was 7.2 ± 2.4 %ID/g and the radioactivity in testis ([1]; 60 min after injection) was 0.2 ± 0.0 %ID/g. For the same compound, the “unchanged [11C]PK68 in liver” value ([2]; 5 min after injection) was 85%, the “unchanged [11C]PK68 in plasma” value ([2]; 5 min after injection) was 85% and the “unchanged [11C]PK68 in liver” value ([2]; 15 min after injection) was 67%. For the same compound, the “unchanged [11C]PK68 in plasma” value ([2]; 15 min after injection) was 66%, the “unchanged [11C]PK68 in liver” value ([2]; 30 min after injection) was 68% and the “unchanged [11C]PK68 in plasma” value ([2]; 30 min after injection) was 65%. The “unchanged [11C]PK68 in liver” value ([2]; 60 min after injection) was 57%, the “unchanged [11C]PK68 in plasma” value ([2]; 60 min after injection) was 57% and > 50% and the logD [3] was 4.
